Source: ChEMBL document CHEMBL1201862, “PubChem BioAssay data set” (2004)
Active and inactive are the calls of the source.

Experiments:
Bcl-2-related protein A1 [1] = biological target: T1, Bcl-2-related protein A1 (Mus musculus, UniProt Q07440); assay: Bfl-1 inhibitors blocking BH3 peptide binding, confirmation, biochemical, TR-FRET, mouse Bfl-1 (AID 621);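 note: TR-FRET binding of GST-Bfl-1 to FITC-labelled Bid peptide via terbium antibody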
T1 sequence (Q07440 whole entry): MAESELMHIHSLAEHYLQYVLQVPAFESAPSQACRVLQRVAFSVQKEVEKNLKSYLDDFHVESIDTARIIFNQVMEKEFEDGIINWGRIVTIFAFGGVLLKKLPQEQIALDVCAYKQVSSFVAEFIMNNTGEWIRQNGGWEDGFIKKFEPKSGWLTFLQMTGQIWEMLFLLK

Bcl-2-related protein A1 [2] = biological target: T1, Bcl-2-related protein A1; assay: Bfl-1 binding inhibitors, SAR follow-up, biochemical, fluorescence polarization (AID 1070)
[3] = Luminescence Cell-Based Dose Confirmation to Identify Activators of 5'UTR Stem-Loop Driven Alpha-Synuclein mRNA Translation in H4 Neuroglioblastoma Cells. [Related pubchem assays: 1829 (Project Summary), 1814 (Primary HTS)]; assay type: functional
H4 = assay: Luminescence Cell-Based Dose Response HTS to Identify Activators of 5'UTR Stem-Loop Driven Prion Protein mRNA Translation in H4 Neuroglioblastoma Cells. [Related pubchem assays: 1829 (Project Summary), 1814 (Primary HTS)]; assay type: functional; conditions: Homo sapiens
[4] = Luminescence Cell-Based Dose Response HTS to Identify Activators of Luciferase Translation or Activity in H4 […] Cells. [Related pubchem assays: 1829 (Project Summary), 1814 (Primary HTS)]; assay type: functional
[5] = Luminescence Cell-Based Dose Response to Identify Activators of 5'UTR Stem-Loop Driven Prion Protein mRNA Translation in H4-C Neuroglioblastoma Cells. [Related pubchem assays: 1829 (Project Summary), 1814 (Primary HTS)]; assay type: functional
[6] = Luminescence Cell-Based Dose Response to Identify Activators of Luciferase Translation or Activity in H4-C Neuroglioblastoma Cells. [Related pubchem assays: 1829 (Project Summary), 1814 (Primary HTS)]; assay type: functional
NADPH oxidase 1 = biological target: T2, NADPH oxidase 1 (Homo sapiens, UniProt Q9Y5S8); assay: Late-stage luminescence-based cell-based dose response assay to identify inhibitors of NADPH oxidase 1 (NOX1): Purchased analogs 2.; assay type: functional
T2 sequence (Q9Y5S8 whole entry): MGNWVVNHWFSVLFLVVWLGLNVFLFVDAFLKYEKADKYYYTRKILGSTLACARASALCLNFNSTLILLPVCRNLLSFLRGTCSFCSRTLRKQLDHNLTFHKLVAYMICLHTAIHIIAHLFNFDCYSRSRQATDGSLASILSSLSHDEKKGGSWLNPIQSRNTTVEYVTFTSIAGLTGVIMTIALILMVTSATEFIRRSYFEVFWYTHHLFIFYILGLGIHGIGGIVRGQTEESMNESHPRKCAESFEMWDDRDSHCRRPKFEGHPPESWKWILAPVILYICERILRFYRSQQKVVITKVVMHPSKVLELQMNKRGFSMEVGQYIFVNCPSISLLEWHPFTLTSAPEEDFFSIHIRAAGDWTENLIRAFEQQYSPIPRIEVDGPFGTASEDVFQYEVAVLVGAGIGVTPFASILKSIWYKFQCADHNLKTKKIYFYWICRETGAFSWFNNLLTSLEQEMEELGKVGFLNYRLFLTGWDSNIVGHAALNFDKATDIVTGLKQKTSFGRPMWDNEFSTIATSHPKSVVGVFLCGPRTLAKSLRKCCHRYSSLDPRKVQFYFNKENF

Vero = assay: host cell cytotoxicity of antiviral hits, dose response, cytotoxicity control for West Nile virus antiviral project, secondary assay (AID 1650); assay type: functional; conditions: Chlorocebus sabaeus
[7] = NIH-3T3 fibroblast cytotoxicity, dose response, cytotoxicity control, cell-based, fluorescence, Alamar Blue, secondary assay (AID 2327); assay type: functional;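 note: NIH-3T3 mouse fibroblasts cultured with fluconazole at 8 µg/mL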
[8] = C. albicans growth with fluconazole, confirmation, fluorescence, retest (AID 2467); assay type: functional, cell-based
Genome polyprotein = Genome polyprotein (Hepatitis C virus, UniProt Q2Q167); assay: HCV core protein dimerization inhibitors, dose response, biochemical, TR-FRET (AID 2159); set-up: species or system Hepacivirus hominis;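 note: blocks dimerization of HCV core protein measured by TR-FRET between tagged core106 pairs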
Sequence of Genome polyprotein (Q2Q167 whole entry): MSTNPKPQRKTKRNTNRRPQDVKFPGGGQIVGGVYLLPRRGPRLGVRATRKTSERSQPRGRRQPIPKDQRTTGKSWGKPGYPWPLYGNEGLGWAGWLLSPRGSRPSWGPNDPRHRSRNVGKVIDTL

[9] = biological target: Induced myeloid leukemia cell differentiation protein Mcl-1 (Homo sapiens, UniProt Q07820); assay type: functional
Sequence of Induced myeloid leukemia cell differentiation protein Mcl-1 (Q07820 whole entry): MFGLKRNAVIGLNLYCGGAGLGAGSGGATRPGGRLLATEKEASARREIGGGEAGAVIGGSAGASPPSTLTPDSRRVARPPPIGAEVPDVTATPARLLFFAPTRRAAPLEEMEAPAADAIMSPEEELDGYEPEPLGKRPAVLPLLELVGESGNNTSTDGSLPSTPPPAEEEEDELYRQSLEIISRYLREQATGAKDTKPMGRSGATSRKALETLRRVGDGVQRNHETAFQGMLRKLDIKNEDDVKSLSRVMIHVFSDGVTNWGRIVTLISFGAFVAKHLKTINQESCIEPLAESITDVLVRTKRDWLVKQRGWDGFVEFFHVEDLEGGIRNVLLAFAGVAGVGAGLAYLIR

[10] = Jurkat T cell cytotoxicity, dose response, cytotoxicity control for P. falciparum gametocyte viability project, luminescence (AID 1117277); assay type: functional, cell-based;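 note: potency reflects loss of cellular ATP meaning fewer viable cells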
[11] = P. falciparum late gametocyte killing, dose response, luminescence (AID 1117278); assay type: functional, cell-based;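 note: gametocytes exposed to compound for 24 hours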
[12] = M. tuberculosis growth inhibition, HTS (AID 449762); assay type: functional
[13] = biological target: Voltage-gated inwardly rectifying potassium channel KCNH2 (Homo sapiens, UniProt Q12809); assay: hERG protection from proarrhythmic block, potency, dose response, cell-based, thallium flux (AID 2121); assay type: ADME
Sequence of Voltage-gated inwardly rectifying potassium channel KCNH2 (Q12809 whole entry): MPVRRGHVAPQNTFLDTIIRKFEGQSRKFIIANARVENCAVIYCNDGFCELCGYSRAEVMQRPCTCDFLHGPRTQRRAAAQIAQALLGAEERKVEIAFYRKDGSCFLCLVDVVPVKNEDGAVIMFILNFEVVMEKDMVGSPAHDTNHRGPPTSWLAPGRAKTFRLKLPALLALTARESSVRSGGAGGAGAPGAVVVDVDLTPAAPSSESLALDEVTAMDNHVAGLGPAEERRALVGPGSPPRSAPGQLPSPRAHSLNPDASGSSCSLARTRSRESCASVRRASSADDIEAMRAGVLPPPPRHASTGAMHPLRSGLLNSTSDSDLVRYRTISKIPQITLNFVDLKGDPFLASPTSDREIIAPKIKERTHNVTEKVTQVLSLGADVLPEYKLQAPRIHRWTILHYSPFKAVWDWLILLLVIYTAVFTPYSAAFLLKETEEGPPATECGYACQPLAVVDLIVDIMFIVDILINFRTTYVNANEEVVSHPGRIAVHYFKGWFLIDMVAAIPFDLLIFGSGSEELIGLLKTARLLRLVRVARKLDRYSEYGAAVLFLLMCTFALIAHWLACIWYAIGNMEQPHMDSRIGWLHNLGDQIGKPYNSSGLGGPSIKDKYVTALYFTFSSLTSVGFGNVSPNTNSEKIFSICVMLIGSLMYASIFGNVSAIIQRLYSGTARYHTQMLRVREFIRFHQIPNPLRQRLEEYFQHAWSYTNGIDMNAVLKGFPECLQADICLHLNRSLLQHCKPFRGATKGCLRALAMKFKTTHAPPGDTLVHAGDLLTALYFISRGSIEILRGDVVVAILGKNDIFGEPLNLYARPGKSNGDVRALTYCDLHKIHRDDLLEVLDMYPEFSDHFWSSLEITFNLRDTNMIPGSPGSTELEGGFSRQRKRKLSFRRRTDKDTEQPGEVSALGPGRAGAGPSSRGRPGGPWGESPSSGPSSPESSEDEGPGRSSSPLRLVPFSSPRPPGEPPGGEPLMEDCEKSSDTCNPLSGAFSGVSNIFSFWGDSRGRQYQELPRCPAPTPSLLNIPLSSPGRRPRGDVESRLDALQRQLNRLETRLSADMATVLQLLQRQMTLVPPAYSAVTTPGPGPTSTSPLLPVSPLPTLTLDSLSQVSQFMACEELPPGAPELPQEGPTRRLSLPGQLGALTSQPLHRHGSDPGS

[14] = biological target: T3, Corticotropin-releasing factor receptor 2/Corticotropin-releasing factor-binding protein (Homo sapiens, UniProt P24387+Q13324); assay: activators of CRF receptor 2 with binding protein – uHTS hits, confirmation (AID 602473); assay type: functional; conditions: read-out: EC50_Mean
T3 sequence (Q13324 whole entry): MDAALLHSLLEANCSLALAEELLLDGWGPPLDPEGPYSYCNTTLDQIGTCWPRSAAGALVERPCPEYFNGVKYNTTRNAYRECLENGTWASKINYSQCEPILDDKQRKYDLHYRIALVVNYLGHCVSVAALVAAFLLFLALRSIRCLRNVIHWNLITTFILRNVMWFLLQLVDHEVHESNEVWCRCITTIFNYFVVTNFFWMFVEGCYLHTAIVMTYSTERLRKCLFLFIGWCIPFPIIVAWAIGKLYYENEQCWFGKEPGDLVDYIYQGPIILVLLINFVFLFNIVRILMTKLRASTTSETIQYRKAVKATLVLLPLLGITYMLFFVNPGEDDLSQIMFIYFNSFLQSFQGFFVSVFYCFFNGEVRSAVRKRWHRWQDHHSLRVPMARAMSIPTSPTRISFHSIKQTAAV
T3 sequence (P24387 whole entry): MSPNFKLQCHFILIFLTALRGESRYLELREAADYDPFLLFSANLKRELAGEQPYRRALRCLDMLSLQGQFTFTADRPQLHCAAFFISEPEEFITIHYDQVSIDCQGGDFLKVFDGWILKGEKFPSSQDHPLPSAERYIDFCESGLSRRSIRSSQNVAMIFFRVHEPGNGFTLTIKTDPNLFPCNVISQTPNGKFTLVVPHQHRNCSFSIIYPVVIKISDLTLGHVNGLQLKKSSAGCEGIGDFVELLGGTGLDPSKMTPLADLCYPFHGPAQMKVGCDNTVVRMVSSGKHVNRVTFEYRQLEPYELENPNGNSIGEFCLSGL

cells = assay type: functional

## C[C@H]1CN(C2=C(Cl)C(=O)N(c3ccc(Cl)c(Cl)c3)C2=O)CCN1
Bcl-2-related protein A1 [1]
  IC50: 1.25 µM (active)
Bcl-2-related protein A1 [2]
  IC50: 1.32 µM (active)

## S=C(c1ccc(-c2ccc(Br)cc2)o1)N1CCOCC1
[3]
  EC50: 0.251 µM (active)
H4
  EC50: 18.6 µM (inconclusive)
[4]
  EC50: < 0.1 µM (active)
[5]
  EC50: 0.507 µM (active)
[6]
  EC50: 0.378 µM (active)

## Cc1cc(Cl)ccc1NC(=S)NNC(=S)Nc1ccc(Cl)cc1C
NADPH oxidase 1
  IC50: 3.51 µM (active)

## Nc1nsc2ccccc12
Vero
  CC50: 41.7 µM (active)
[7]
  EC50: 24.5 µM (inconclusive)
[8]
  EC50: 3.19 µM (active)

## CCN(CC)S(=O)(=O)c1ccc(N2CCOCC2)c(NC(=O)c2c3c(nc4ccccc24)CCC3)c1
Genome polyprotein
  IC50: > 49.8 µM (not active)
[9]
  IC50: 5.07 µM (active)
[10]
  IC50: > 83.3 µM (inactive)
[11]
  IC50: > 109 µM (inactive)

## CCOc1ccc2nc(/N=C/c3nc(-c4ccccc4)oc3O)sc2c1
[12]
  IC50: > 100 µM (active)
[13]
  EC50: 1.69 µM (active)
[14]
  EC50: 14.6 µM (active)
cells
  IC50: 3.76 µM (active)
